SMILES strings stand for the structures. Entries after “also recorded” stand apart in the source; their conditions may differ.

A short description of series [1]: Dog pharmacokinetics of API, amorphous and solid dispersion capsules, cross-over. The conditions noted are these: male, beagle, in vivo, po, 2200 mg. Details: species or system male beagle dogs. Here is the method: Presented herein are dog pharmacokinetics (PK) studies comparing various forms of rifaximin. […] In the SD dosage form, the polymer used was HPMC-AS at a drug to polymer ratio of 50:50. The formulation also comprised pluronic F127 and crosscarmellose sodium (see Example 4). […] Blood was collected at timed intervals for 24 h after dosage administration, and plasma was harvested for LC-MS/MS analysis.

The nature of another series: in vivo. The conditions noted are these: dog, po, 2200 mg.
Series [2] is described as follows: Physical stability assessment in 0.1N HCl at 37° C. (PLM). The format is physicochemical. Here is the method: For the assessment of physical stability for samples in a 0.1N HCl solution maintained at 37° C., observations were made and microscopy images were acquired using polarized light at different time points including 0, 6 and 24 hrs, as summarized in Table 6. Based on the absence of birefringent particles when samples were observed by PLM, dispersions prepared with HPMC-AS HG and HPMC-AS MG display the highest physical stability under this particular stress condition.

Series [3] is described as follows: Physical stability assessment at 40° C./75% RH for 7 d (PLM, mDSC). The class given is physicochemical. To be noted: after 40° C./75% RH for 7 d. Here is the method:
Each of the samples remained as irregular aggregates without birefringence/extinctions after stressed at 40° C./75% RH condition for 7 days. […] All of samples display a single apparent Tg at approximately 148° C.

Series [4] in a line: Physical stability assessment at 60° C./dry for 7 d (PLM). The class given is physicochemical. The conditions noted are these: after 60° C./dry for 7 d. From the text: Each of the samples remained as irregular aggregates without birefringence/extinctions after stressed at this condition for 7 days.

As a reminder, the Tmax is the time from dosing to the highest level. One may read the AUC as concentration integrated over time. Usually AUC(0-inf) stands for the area under the concentration-time curve extrapolated to infinity. One may read the Cmax as the highest concentration seen after dosing. Consider `CO[C@H]1/C=C/O[C@@]2(C)Oc3c(C)c(O)c4c(O)c(c5c(nc6cc(C)ccn65)c4c3C2=O)NC(=O)/C(C)=C\C=C\[C@H](C)[C@H](O)[C@@H](C)[C@@H](O)[C@@H](C)[C@H](OC(C)=O)[C@@H]1C` [amorph, Rifaximin], for which, in series [1], the “AUCINF_obs, mean” value worked out at 4027 ng·h/mL; the “AUC_0-24, mean” value came out at 3908 ng·h/mL; the “AUClast, mean” value is 3908 ng·h/mL; the “Half-life, geometric mean” value came out at 5.88 h. For the same compound, in series [1], the Tmax was 1 h and the “mean exposure (AUCinf) as compared with API” value is recorded as roughly 40 fold. In “in vivo”, the exposure (AUC) was 3910 ng·h/mL, the area under the curve AUC(0-inf) turned out to be 4030 ng·h/mL, the highest concentration (Cmax) came out at 1390 ng/mL and the time of peak concentration (Tmax) came to 2 h.

The term half-life denotes how long it takes for the measured level to halve. A higher half-life goes with slow loss. As for `CO[C@H]1/C=C/O[C@@]2(C)Oc3c(C)c(O)c4c(O)c(c5c(nc6cc(C)ccn65)c4c3C2=O)NC(=O)/C(C)=C\C=C\[C@H](C)[C@H](O)[C@@H](C)[C@@H](O)[C@@H](C)[C@H](OC(C)=O)[C@@H]1C` [API, Rifaximin], in series [1], the “AUCINF_obs, mean” value was 104 ng·h/mL; the “AUC_0-24, mean” value came to 82 ng·h/mL; the “AUClast, mean” value is 81 ng·h/mL; the “Cmax, mean” value was found to be 44.93 ng/mL. In series [1] (Half-life, geometric mean), this compound had a half-life of 6.98 h. Besides, in series [1] (Tmax, median), the time to peak (Tmax) stood at 1 h.

Consider `CO[C@H]1/C=C/O[C@@]2(C)Oc3c(C)c(O)c4c(O)c(c5c(nc6cc(C)ccn65)c4c3C2=O)NC(=O)/C(C)=C\C=C\[C@H](C)[C@H](O)[C@@H](C)[C@@H](O)[C@@H](C)[C@H](OC(C)=O)[C@@H]1C` [(100:0) Rifaximin-only, Rifaximin], for which the PLM results in series [2] (6 hrs) is listed as “clear view of B/E particles; also recorded: agg., no B/E + a few B/E particles”; in series [2] (24 hrs) it was “agg., no B/E + a few B/E particles”; in series [2] (time 0) it was “agg., irr., no B/E”; in series [3], “agg., irr., no B/E”; in series [4] it was “agg., irr., no B/E”. Besides, in series [2] (PLM), the “time at which crystallization (birefringence/extinctions) was observed” value came to 6 h.

Values taken from patent US9737610B2 (priority 2010, dated 2017).
